Here are results for one compound from patent US9700637B2, “Reaction-based fluorescent probes for detecting zinc” (Massachusetts Institute of Technology, priority 2013, dated 2017).

The nature of series [1]: Deacetylation kinetics monitored by UV-vis absorbance (metal-mediated and uncatalyzed hydrolysis). It is filed as physicochemical. To be noted: 2.75 μM, 125 μM ZnCl2, 37° C., 50 mM PIPES pH 7, 100 mM KCl, absorbance 510 nm. The procedure: (§1) FIG. 23 depicts kinetic traces for the deacetylation of DA-ZP1-TPP. The half-life for deacetylation of a 2.75 μM solution of DA-ZP1-TPP, at 37° C. in 50 mM PIPES buffer (pH 7) and 100 mM KCl, was measured in the presence of 125 μM ZnCl2 (+Zn), 250 μM EDTA (−Zn), or 1.25 units of porcine liver esterase (Esterase). The change in absorbance at 520 nm (EDTA and esterase) or 510 nm (ZnCl2) was used to monitor the reaction.
FIG. 26 depicts in vitro characterization of DA-ZP1-A3. (a) UV-vis and (b) fluorescence spectra of a 5 μM solution of DA-ZP1-A3 in buffer (50 mM PIPES, 100 mM KCl; pH 7). Spectra were acquired initially, upon addition of 100 μM ZnCl2, and again after addition of 200 μM EDTA. (c) Time-dependent change in the normalized absorbance of a ca. 5 μM solution DA-ZP1-A3 at 37° C. in buffer (50 mM PIPES, 100 mM KCl; pH 7) in the presence of 100 μM ZnCl2 (λabs=510 nm) or EDTA (λabs=520 nm). (d) Integrated fluorescence intensity of a 1 μM solution of ZP1-A3 (circles) or DA-ZP1-A3 (squares) as a function of pH. […]
DA-ZP1-TPP has a zinc-induced fluorescence response and is relatively stable to uncatalyzed hydrolysis and esterase activity. […] Other late 3d-block transition metal ions, such as Co(II) and Cu(II), can coordinate to DA-ZP1-TPP but are generally not available in appreciable chelatable quantities within the cell. […]

The test system of a further series is porcine liver esterase. Briefly: Deacetylation by porcine liver esterase (UV-vis absorbance). Format: in vitro ADME. To be noted: 1.25 units porcine liver esterase, 37° C., pH 7. The procedure:
as §1
DA-ZP1-TPP has a zinc-induced fluorescence response and is relatively stable to uncatalyzed hydrolysis and esterase activity. […] Other late 3d-block transition metal ions, such as Co(II) and Cu(II), can coordinate to DA-ZP1-TPP but are generally not available in appreciable chelatable quantities within the cell. In addition to monitoring selectivity in the fluorescence response, we used UV-vis spectroscopy to investigate the rate and zinc-specificity of metal-mediated ester hydrolysis. DA-ZP1-TPP deacetylation results in opening of the lactone ring and restoration of conjugation across the xanthene ring. By monitoring the absorbance of the xanthene it system, we could interrogate deacetylation kinetics in a manner that is independent of the fluorescence response. […] To determine whether ester hydrolysis depends on the metal-binding core of DA-ZP1-TPP, we measured the deacetylation kinetics of fluorescein diacetate (DA-FL) under analogous conditions. […]

Structures are written as SMILES.

Consider `CC(=O)Oc1c(Cl)cc2c(c1CN(Cc1ccccn1)Cc1ccccn1)Oc1c(cc(Cl)c(OC(C)=O)c1CN(Cc1ccccn1)Cc1ccccn1)C21OC(=O)c2ccc(C(=O)NCC[P+](c3ccccc3)(c3ccccc3)c3ccccc3)cc21` [DA-ZP1-TPP], for which the “kobs of zinc-induced deacetylation” value in series [1] stood at 0.0855 ± 0.019 s⁻¹. In the series on porcine liver esterase, the t1/2-Esterase of deacetylation is 2.9 h.
